Measurements reported in ChEMBL document CHEMBL1201862, “PubChem BioAssay data set” (2004).
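Growth conditions: 96-well plates. Treatment: test compound, 48 hours, 5 concentrations. Analysis: linear interpolation between bracketing concentrations; unreached endpoints set to highest concentration. GI50: concentration for 50% inhibition of growth.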 The source made the active and inactive calls. Rule as the data show it: active = GI50 up to about 1.1 µM and inactive = higher.

What was measured:
Experiment in all cases: NCI-60 cell line screen, 48 h
786-0 = system: 786-0
A498 = system: A498
A549 = system: A549
ACHN = system: ACHN
BT-549 = system: BT-549
CAKI-1 = system: CAKI-1
COLO 205 = system: COLO 205
DU-145 = system: DU-145
EKVX = system: EKVX
HCC 2998 = system: HCC 2998
HCT-116 = system: HCT-116
HCT-15 = system: HCT-15
HOP-62 = system: HOP-62
Hs-578T = system: Hs-578T
IGROV-1 = system: IGROV-1
K562 = system: K562
KM12 = system: KM12
LOX IMVI = system: LOX IMVI
M14 = system: M14
MCF7 = system: MCF7
MDA-MB-231 = system: MDA-MB-231
MDA-MB-435 = system: MDA-MB-435
MDA-N = system: MDA-N
MOLT-4 = system: MOLT-4
NCI-H226 = system: NCI-H226
NCI-H23 = system: NCI-H23
NCI-H460 = system: NCI-H460
NCI/ADR-RES = system: NCI/ADR-RES
OVCAR-3 = system: OVCAR-3
OVCAR-4 = system: OVCAR-4
OVCAR-5 = system: OVCAR-5
OVCAR-8 = system: OVCAR-8
PC-3 = system: PC-3
RPMI-8226 = system: RPMI-8226
RXF 393 = system: RXF 393
SF-268 = system: SF-268
SF-295 = system: SF-295
SK-MEL-28 = system: SK-MEL-28
SK-MEL-2 = system: SK-MEL-2
SK-OV-3 = system: SK-OV-3
SN12C = system: SN12C
SNB-19 = system: SNB-19
SNB-75 = system: SNB-75
SR = system: SR
SW-620 = system: SW-620
T47D = system: T47D
TK-10 = system: TK-10
U-251 = system: U-251
UACC-257 = system: UACC-257
UACC-62 = system: UACC-62
UO-31 = system: UO-31
HL-60 = system: HL-60
HOP-92 = system: HOP-92
HT-29 = system: HT-29
NCI-H522 = system: NCI-H522
SF-539 = system: SF-539
SK-MEL-5 = system: SK-MEL-5

COc1c(O)cc2ccnc3c2c1N(C)C=C3
GI50 (786-0): 83.8 µM (inactive) | GI50 (A498): > 100 µM (inactive) | GI50 (A549): > 100 µM (inactive) | GI50 (ACHN): 56.1 µM (inactive) | GI50 (BT-549): > 100 µM (inactive) | GI50 (CAKI-1): > 100 µM (inactive) | GI50 (COLO 205): 94.6 µM (inactive) | GI50 (DU-145): > 100 µM (inactive) | GI50 (EKVX): > 100 µM (inactive) | GI50 (HCC 2998): > 100 µM (inactive) | GI50 (HCT-116): 67.3 µM (inactive) | GI50 (HCT-15): > 100 µM | GI50 (HOP-62): > 100 µM (inactive) | GI50 (Hs-578T): > 100 µM (inactive) | GI50 (IGROV-1): > 100 µM (inactive) | GI50 (K562): > 100 µM (inactive) | GI50 (KM12): > 100 µM (inactive) | GI50 (LOX IMVI): > 100 µM (inactive) | GI50 (M14): > 100 µM (inactive) | GI50 (MCF7): > 100 µM (inactive) | GI50 (MDA-MB-231): > 100 µM (inactive) | GI50 (MDA-MB-435): > 100 µM (inactive) | GI50 (MDA-N): > 100 µM (inactive) | GI50 (MOLT-4): 91.6 µM (inactive) | GI50 (NCI-H226): > 100 µM (inactive) | GI50 (NCI-H23): > 100 µM (inactive) | GI50 (NCI-H460): 64.6 µM (inactive) | GI50 (NCI/ADR-RES): > 100 µM (inactive) | GI50 (OVCAR-3): > 100 µM (inactive) | GI50 (OVCAR-4): > 100 µM (inactive) | GI50 (OVCAR-5): > 100 µM (inactive) | GI50 (OVCAR-8): 95.1 µM (inactive) | GI50 (PC-3): > 100 µM (inactive) | GI50 (RPMI-8226): > 100 µM (inactive) | GI50 (RXF 393): > 100 µM (inactive) | GI50 (SF-268): > 100 µM (inactive) | GI50 (SF-295): 55 µM (inactive) | GI50 (SK-MEL-28): > 100 µM (inactive) | GI50 (SK-MEL-2): > 100 µM (inactive) | GI50 (SK-OV-3): > 100 µM (inactive) | GI50 (SN12C): 67.6 µM (inactive) | GI50 (SNB-19): > 100 µM (inactive) | GI50 (SNB-75): > 100 µM (inactive) | GI50 (SR): 10.1 µM (inactive) | GI50 (SW-620): 86.1 µM (inactive) | GI50 (T47D): > 100 µM (inactive) | GI50 (TK-10): > 100 µM (inactive) | GI50 (U-251): > 100 µM (inactive) | GI50 (UACC-257): > 100 µM (inactive) | GI50 (UACC-62): > 100 µM (inactive) | GI50 (UO-31): 39.4 µM (inactive)

O=C(O)C1[C@@H](C(=O)O)C1(Br)CBr (stereo partly drawn)
GI50 (786-0): > 100 µM (inactive) | GI50 (A498): > 100 µM (inactive) | GI50 (A549): > 100 µM (inactive) | GI50 (ACHN): > 100 µM (inactive) | GI50 (BT-549): > 100 µM (inactive) | GI50 (CAKI-1): > 100 µM (inactive) | GI50 (COLO 205): > 100 µM (inactive) | GI50 (DU-145): > 100 µM (inactive) | GI50 (EKVX): > 100 µM (inactive) | GI50 (HCC 2998): > 100 µM (inactive) | GI50 (HCT-116): > 100 µM (inactive) | GI50 (HCT-15): > 100 µM | GI50 (HL-60): > 100 µM (inactive) | GI50 (HOP-62): > 100 µM (inactive) | GI50 (HOP-92): > 100 µM (inactive) | GI50 (HT-29): > 100 µM (inactive) | GI50 (Hs-578T): > 100 µM (inactive) | GI50 (IGROV-1): > 100 µM (inactive) | GI50 (K562): > 100 µM (inactive) | GI50 (KM12): > 100 µM (inactive) | GI50 (LOX IMVI): > 100 µM (inactive) | GI50 (M14): > 100 µM (inactive) | GI50 (MCF7): > 100 µM (inactive) | GI50 (MDA-MB-231): > 100 µM (inactive) | GI50 (MDA-MB-435): > 100 µM (inactive) | GI50 (MDA-N): > 100 µM (inactive) | GI50 (MOLT-4): > 100 µM (inactive) | GI50 (NCI-H226): > 100 µM (inactive) | GI50 (NCI-H23): > 100 µM (inactive) | GI50 (NCI-H460): > 100 µM (inactive) | GI50 (NCI-H522): > 100 µM (inactive) | GI50 (NCI/ADR-RES): > 100 µM (inactive) | GI50 (OVCAR-3): > 100 µM (inactive) | GI50 (OVCAR-4): > 100 µM (inactive) | GI50 (OVCAR-5): > 100 µM (inactive) | GI50 (OVCAR-8): > 100 µM (inactive) | GI50 (PC-3): > 100 µM (inactive) | GI50 (RPMI-8226): > 100 µM (inactive) | GI50 (RXF 393): > 100 µM (inactive) | GI50 (SF-268): > 100 µM (inactive) | GI50 (SF-295): > 100 µM (inactive) | GI50 (SF-539): > 100 µM (inactive) | GI50 (SK-MEL-28): > 100 µM (inactive) | GI50 (SK-MEL-2): > 100 µM (inactive) | GI50 (SK-MEL-5): > 100 µM (inactive) | GI50 (SK-OV-3): > 100 µM (inactive) | GI50 (SN12C): > 100 µM (inactive) | GI50 (SNB-19): > 100 µM (inactive) | GI50 (SNB-75): > 100 µM (inactive) | GI50 (SR): > 100 µM (inactive) | GI50 (SW-620): > 100 µM (inactive) | GI50 (T47D): > 100 µM (inactive) | GI50 (TK-10): > 100 µM (inactive) | GI50 (U-251): > 100 µM (inactive) | GI50 (UACC-257): > 100 µM (inactive) | GI50 (UACC-62): > 100 µM (inactive) | GI50 (UO-31): > 100 µM (inactive)
